The values below come from ChEMBL document CHEMBL5247641, “Discovery of Potent DYRK2 Inhibitors with High Selectivity, Great Solubility, and Excellent Safety Properties for the Treatment of Prostate Cancer” (J Med Chem, 2023).

The target in test [1] is T1, Dual specificity tyrosine-phosphorylation-regulated kinase 2 (Homo sapiens, UniProt Q92630).
T1 sequence (Q92630 whole entry): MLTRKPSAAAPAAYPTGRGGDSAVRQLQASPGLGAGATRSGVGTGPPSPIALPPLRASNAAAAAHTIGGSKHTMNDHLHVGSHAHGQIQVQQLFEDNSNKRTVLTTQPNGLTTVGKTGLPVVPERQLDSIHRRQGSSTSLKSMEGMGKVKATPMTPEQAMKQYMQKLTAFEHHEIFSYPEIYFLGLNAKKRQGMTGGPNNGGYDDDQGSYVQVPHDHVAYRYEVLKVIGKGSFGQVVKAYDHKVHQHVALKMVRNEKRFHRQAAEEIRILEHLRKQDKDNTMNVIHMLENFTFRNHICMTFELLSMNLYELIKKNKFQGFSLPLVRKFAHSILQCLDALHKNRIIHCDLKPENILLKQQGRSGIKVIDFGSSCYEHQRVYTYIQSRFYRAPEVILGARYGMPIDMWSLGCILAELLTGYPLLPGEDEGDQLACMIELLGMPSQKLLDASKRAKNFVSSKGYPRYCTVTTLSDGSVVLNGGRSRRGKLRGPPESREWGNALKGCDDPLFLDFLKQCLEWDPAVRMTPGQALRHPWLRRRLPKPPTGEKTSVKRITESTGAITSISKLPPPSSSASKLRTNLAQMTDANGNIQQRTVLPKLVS
Put plainly: Inhibition of hexa His-tagged DYRK2 (72 to 479 residues) (unknown origin) expressed in Escherichia coli BL21 (DE3) assessed as substrate phosphorylation using 4E-BP1 as substrate in presence of [gamma33-P]ATP incubated for 2 hrs by scintillation counter analysis.

Test [2] has as its system DU-145. Put plainly: Induction of cell cycle arrest in human DU-145 cells assessed as accumulation of cells at S phase at 40 uM incubated for 24 hrs by propidium iodide based flow cytometric analysis (Rvb= 29.02%). The class given is functional.
Test [3] deals with DU-145. Nature of the test: Induction of apoptosis in human DU-145 cells assessed as apoptotis rate at 40 uM incubated for 24 hrs by Annexin V-FITC and PI staining based flow cytometry (Rvb= 4.36%). The class given is functional.
The subject of test [4] is CWR22R. Nature of the test: Induction of apoptosis in human 22Rv1 cells assessed as apoptotis rate at 40 uM incubated for 24 hrs by Annexin V-FITC and PI staining based flow cytometry (Rvb= 3.08%). The class given is functional.
Test [5] concerns DU-145. Put plainly: Induction of cell cycle arrest in human DU-145 cells assessed as accumulation of cells at G1 phase at 40 uM incubated for 24 hrs by propidium iodide based flow cytometric analysis (Rvb= 53.46%). The class given is functional.
The subject of test [6] is DU-145. Put plainly: Induction of cell cycle arrest in human DU-145 cells assessed as accumulation of cells at G2 phase at 40 uM incubated for 24 hrs by propidium iodide based flow cytometric analysis (Rvb= 17.52%). The class given is functional.
The test system of test [7] is DU-145. Nature of the test: Antitumor activity against human DU-145 xenografted in BALB/c nude mouse assessed as tumor growth inhibition at 100 mg/kg,po qd for 21 days. Particulars: time 21.0 day. The class given is functional, organism-based.
Test [8] relates to CWR22R. Put plainly: Induction of cell cycle arrest in human 22Rv1 cells assessed as accumulation of cells at G2 phase at 40 uM incubated for 24 hrs by propidium iodide based flow cytometric analysis (Rvb=24.21 %). The class given is functional.
Test [9] has as its system CWR22R. Nature of the test: Induction of cell cycle arrest in human 22Rv1 cells assessed as accumulation of cells at G1 phase at 40 uM incubated for 24 hrs by propidium iodide based flow cytometric analysis (Rvb= 55.28%). The class given is functional.
Test [10] relates to CWR22R. Nature of the test: Induction of cell cycle arrest in human 22Rv1 cells assessed as accumulation of cells at S phase at 40 uM incubated for 24 hrs by propidium iodide based flow cytometric analysis (Rvb=20.51 %). The class given is functional.
For test [11], the target named is T1, Dual specificity tyrosine-phosphorylation-regulated kinase 2. Put plainly: Inhibition of human GST-tagged DYRK2 expressed in Escherichia coli BL21 (DE3) using woodtide as substrate in presence of [gamma33-P]ATP incubated for 30 mins by Scintillation counter analysis.

Active and inactive are the calls of the source. The calls are words filed in the database; no cut-off is given here.

As for `CC(C)(C)OC(=O)N1CCN(Cc2ccc(Nc3nccc(-c4ccc5scnc5c4)n3)nc2)CC1`, in [1], the IC50 was more than 10000 nM.
In the case of `CC(C)(C)OC(=O)N1CCN(Cc2ccc(Nc3ncc(F)c(-c4ccc5scnc5c4)n3)nc2)CC1`, the IC50 in [1] is more than 10000 nM.
Still for that read-out and setting: the same measure for `Cc1cnc(Nc2ccc(CN3CCN(C(=O)OC(C)(C)C)CC3)cn2)nc1-c1ccc2scnc2c1`: more than 10000 nM; for `CC(C)(C)OC(=O)N1CCN(C(=O)c2ccc(Nc3ncc(F)c(-c4ccc5scnc5c4)n3)cn2)CC1`: 16 nM.
Consider `CNC(=O)c1ccc(N2C(=S)N(c3ccc(C#N)c(C(F)(F)F)c3)C(=O)C2(C)C)cc1F` [ENZALUTAMIDE], for which the Activity in the test on DU-145 [2] was 26.54%; with DU-145 [3], 8.01%; with CWR22R [4], 5.85%; with DU-145 [5] it was 56.68%; in the test on DU-145 [6], 16.78%; with CWR22R [8], 21.43%. The Activity in the test on CWR22R [9] was determined as 62.89%; in the test on CWR22R [10], 15.68%. For the same molecule, in the test on DU-145 [7], the outcome was Active.
`COc1cc(/C=C/C(=O)CC(=O)/C=C/c2ccc(O)c(OC)c2)ccc1O` [CURCUMIN]: the IC50 in test [11] is 2.5 nM.
Regarding `O=C(c1ccc(Nc2ncc(F)c(-c3ccc4scnc4c3)n2)nc1)N1CCN(C(=O)C2CC2)CC1`, the IC50 in test [1] is 33 nM.
As for `COc1cnc(Nc2ccc(CN3CCN(C(=O)OC(C)(C)C)CC3)cn2)nc1-c1ccc2scnc2c1`, the IC50 in [1] was more than 10000 nM.
